Experimental data published in ChEMBL document CHEMBL1201862, “PubChem BioAssay data set” (2004).
Where “and” joins values, the source holds several entries; their conditions need not be identical. Equal values may be shown once.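 In this assay, cells in 96-well plates receive the compound at five concentrations for 48 hours. Endpoints are linearly interpolated between the surrounding concentrations. Here, GI50 denotes the concentration required for 50% inhibition of growth.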 Calls of active or inactive are those of the source. Cut-off read from the data, not from the text of the source: active = GI50 up to about 1.1 µM and inactive = higher.

Columns and labels:
Experiment in all cases: NCI anticancer screen, dose series, 48 h
[1] = system: SF-539
[2] = system: RPMI-8226
[3] = system: SF-268
[4] = system: DU-145
[5] = system: TK-10
[6] = system: OVCAR-5
[7] = system: HOP-62
[8] = system: U-251
[9] = system: HCT-116
[10] = system: RXF 393
[11] = system: A498
[12] = system: SK-MEL-5
[13] = system: Hs-578T
[14] = system: T47D
[15] = system: MDA-N
[16] = system: NCI-H522
[17] = system: OVCAR-4
[18] = system: KM12
[19] = system: HOP-92
[20] = system: SN12C

SMILES	GI50 [1]	GI50 [2]	GI50 [3]	GI50 [4]	GI50 [5]	GI50 [6]	GI50 [7]	GI50 [8]	GI50 [9]	GI50 [10]	GI50 [11]	GI50 [12]	GI50 [13]	GI50 [14]	GI50 [15]	GI50 [16]	GI50 [17]	GI50 [18]	GI50 [19]	GI50 [20]
CC(C)(C)NCCC(O)c1cc(C(F)(F)F)nc2c(C(F)(F)F)cccc12 (stereo not given)	14.7 µM (inactive)	4.58 µM (inactive)	11.4 µM (inactive)	2.38 µM (inactive)	12.2 µM (inactive)	15.2 µM (inactive)	4.67 µM (inactive)	7.53 µM (inactive)	5.07 µM (inactive)	6.53 µM (inactive)	15 µM (inactive)	12.5 µM (inactive)	14.2 µM (inactive)	14.3 µM (inactive)	11.5 µM (inactive)	11.7 µM (inactive)	12.3 µM (inactive)	2.77 µM (inactive)	12.3 µM (inactive)	7.71 µM (inactive)
COC(=O)C1(C#N)C(C)(C)N=C(c2ccccc2)C12CCCCC2 (stereo not given)	> 100 µM (inactive)	63.4 µM (inactive)	> 100 µM (inactive)	> 100 µM (inactive)	> 100 µM (inactive)	> 100 µM (inactive)	> 100 µM (inactive)	> 100 µM (inactive)	> 100 µM (inactive)	> 100 µM (inactive)	> 100 µM (inactive)	> 100 µM (inactive)	> 100 µM (inactive)	> 100 µM (inactive)	> 100 µM (inactive)	> 100 µM (inactive)	> 100 µM (inactive)	> 100 µM (inactive)	53.2 µM (inactive)	> 100 µM (inactive)
CC(=O)Oc1ccc(/C=C/C(=O)O[C@H]2CCCC[C@@H]2OC(=O)/C=C/c2ccc(OC(C)=O)c(OC(C)=O)c2)cc1OC(C)=O	6.38 µM (inactive)	4.07 µM (inactive)	8.17 µM (inactive)	13.3 µM (inactive)	6.93 µM (inactive)	12.3 µM (inactive)	7.38 µM (inactive)	9.25 µM (inactive)	4.58 µM (inactive)	11.1 µM (inactive)	18.5 µM (inactive)	4.69 µM (inactive)	6.21 µM (inactive)	11.5 µM (inactive)	8.97 µM (inactive)	2.81 µM (inactive)	7.08 µM (inactive)	8.75 µM (inactive)	4.62 µM (inactive)	9.23 µM (inactive)
Cc1ccc([C@H]2CC(=O)C[C@H](c3ccc(C)cc3)C23C(=O)c2ccccc2C3=O)cc1	32.4 µM (inactive)	43.2 µM (inactive)	23 µM (inactive)	> 100 µM (inactive)	22.2 µM (inactive)	> 100 µM (inactive)	22.1 µM (inactive)	16.7 µM (inactive)	34.6 µM (inactive)	19.1 µM (inactive)	> 100 µM (inactive)	34.4 µM (inactive)	19.9 µM (inactive)	> 100 µM (inactive)	52.8 µM (inactive)	3.23 µM (inactive)	18.6 µM (inactive)	> 100 µM (inactive)	13.6 µM (inactive)	48.4 µM (inactive)
NC(Cc1cc(Br)c(O)c(Br)c1)C(=O)O (stereo not given)	> 100 µM (inactive)	> 100 µM (inactive)	> 100 µM (inactive)	> 100 µM (inactive)	> 100 µM (inactive)	> 100 µM (inactive)	> 100 µM (inactive)	> 100 µM (inactive)	> 100 µM (inactive)	> 100 µM (inactive)	> 100 µM (inactive)	> 100 µM (inactive)	> 100 µM (inactive)	> 100 µM (inactive)	> 100 µM (inactive)	> 100 µM (inactive)	> 100 µM (inactive)	> 100 µM (inactive)	> 100 µM (inactive)	> 100 µM (inactive)
O=C1N/C(=N/N=C\C(O)C(O)C(O)CO)N/C1=C/c1ccc(Cl)cc1 (stereo not given)	41.5 µM (inactive)	33.2 µM (inactive) and 34.4 µM (inactive)	27 µM (inactive) and 30.3 µM (inactive)	44.8 µM (inactive) and 70.5 µM (inactive)	> 100 µM (inactive) and 89.7 µM (inactive)	81.1 µM (inactive)	46.2 µM (inactive) and 40.3 µM (inactive)	33 µM (inactive) and 34.1 µM (inactive)	43.9 µM (inactive) and 46.2 µM (inactive)	92 µM (inactive)	49.7 µM (inactive) and 39.8 µM (inactive)	32 µM (inactive) and 46.6 µM (inactive)	40.1 µM (inactive) and 29 µM (inactive)	34.1 µM (inactive) and 21.9 µM (inactive)	46.2 µM (inactive) and 38.5 µM (inactive)	22.5 µM (inactive) and 20.4 µM (inactive)	20.7 µM (inactive)	29.9 µM (inactive) and 37.2 µM (inactive)	17 µM (inactive) and 32.1 µM (inactive)	69 µM (inactive) and 80.5 µM (inactive)
CC(=O)NNc1nc(C)c(C(/C=C/c2ccccc2O)=N/N=C(N)N)s1	> 100 µM (inactive)	> 100 µM (inactive)	> 100 µM (inactive)	> 100 µM (inactive)	> 100 µM (inactive)	> 100 µM (inactive)	> 100 µM (inactive)	> 100 µM (inactive)	> 100 µM (inactive)	> 100 µM (inactive)	> 100 µM (inactive)	> 100 µM (inactive)	> 100 µM (inactive)	> 100 µM (inactive)	> 100 µM (inactive)	> 100 µM (inactive)	> 100 µM (inactive)	> 100 µM (inactive)	> 100 µM (inactive)	> 100 µM (inactive)
CN(C)C(=S)SN(C)C(=O)Nc1ccccc1	34.1 µM (inactive)	15.7 µM (inactive)	38.4 µM (inactive)	63 µM (inactive)	> 96.2 µM (inactive)	12.2 µM (inactive)	> 65.9 µM (inactive)	18 µM (inactive)	8.91 µM (inactive)	1.18 µM (inactive)	3.9 µM (inactive)	3.28 µM (inactive)	> 100 µM (inactive)	1.26 µM (inactive)	9.53 µM (inactive)	0.128 µM (active)	5.06 µM (inactive)	12.1 µM (inactive)	3.5 µM (inactive)	41.2 µM (inactive)
CN1CCC23c4c5ccc(Oc6nnnn6-c6ccccc6)c4OC2c2[nH]c4ccccc4c2CC3(O)C1C5 (stereo not given)	2.62 µM (inactive)	2.22 µM (inactive)	6.89 µM (inactive)	7.16 µM (inactive)	1.87 µM (inactive)	17.2 µM (inactive)	3.24 µM (inactive)	1.85 µM (inactive)	1.83 µM (inactive)	2.28 µM (inactive)	2.4 µM (inactive)	2.29 µM (inactive)	9.25 µM (inactive)	6.71 µM (inactive)	1.73 µM (inactive)	2 µM (inactive)	2.54 µM (inactive)	2.82 µM (inactive)	2.07 µM (inactive)	2.75 µM (inactive)
COc1cc2cc(C(=O)N3CC(COS(C)(=O)=O)c4c3cc(N)c3ccccc43)[nH]c2c(OC)c1OC (stereo not given)	0.0177 µM (active)	0.0175 µM (active)	0.0188 µM (active)	0.0154 µM (active)	< 0.01 µM (active)	0.021 µM (active)	0.0191 µM (active)	0.0141 µM (active)	0.0108 µM (active)	0.0177 µM (active)	0.0219 µM (active)	< 0.01 µM (active)	0.252 µM (active)	0.0385 µM (active)	0.0195 µM (active)	0.0146 µM (active)	< 0.0376 µM (active)	0.0194 µM (active)	< 0.0266 µM (active)	0.0221 µM (active)
CC1=C(Nc2c(C)cc(O)cc2O)C(=O)C=c2oc3c(c21)C(C)=C(Nc1c(C)cc(O)cc1O)C(=O)C=3	19.5 µM (inactive)	28.8 µM (inactive)	45.5 µM (inactive)	54.3 µM (inactive)	94.8 µM (inactive)	47.5 µM (inactive)	32.8 µM (inactive)	37.8 µM (inactive)	26.5 µM (inactive)	> 100 µM (inactive)	> 100 µM (inactive)	17.2 µM (inactive)	32 µM (inactive)	52.4 µM (inactive)	18.6 µM (inactive)	20.1 µM (inactive)	57.4 µM (inactive)	28.9 µM (inactive)	> 100 µM (inactive)	30.4 µM (inactive)
Cc1ccc(-c2sc(-c3ccc(C)cc3)c3c2C2CCC3C2)cc1	> 50 µM (inactive)	> 50 µM (inactive)	> 50 µM (inactive)	> 50 µM (inactive)	> 50 µM (inactive)	> 50 µM (inactive)	> 50 µM (inactive)	> 50 µM (inactive)	> 50 µM (inactive)	> 50 µM (inactive)	> 50 µM (inactive)	> 50 µM (inactive)	> 50 µM (inactive)	> 50 µM (inactive)	> 50 µM (inactive)	> 50 µM (inactive)	> 50 µM (inactive)	> 50 µM (inactive)	> 50 µM (inactive)	> 50 µM (inactive)
COc1cc(C)cc2c1C(=O)C(Br)=CC2=O	15.2 µM (inactive)	3.13 µM (inactive)	16.4 µM (inactive)	18.3 µM (inactive)	2.49 µM (inactive)	19.8 µM (inactive)	17.8 µM (inactive)	19.5 µM (inactive)	6.7 µM (inactive)	3.31 µM (inactive)	20.1 µM (inactive)	12.6 µM (inactive)	29.4 µM (inactive)	2.21 µM (inactive)	3.56 µM (inactive)	2.03 µM (inactive)	2.75 µM (inactive)	15 µM (inactive)	3.09 µM (inactive)	15.7 µM (inactive)
